For 70 compounds, EC50, IC50 and outcome results are on record in PubChem BioAssay AID179 (DTP/NCI, 2004).

For the assay, the system named is CEM cells HIV-1 protection, formazan growth assay. Put plainly: NCI AIDS Antiviral Assay. To be noted: for pIC50: measured here: growth of uninfected CEM cells. A digest of the protocol: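 Screen of anti-HIV-1 activity in human CEM cells using a formazan-based growth measurement at five drug concentrations. Hits with 50% or greater protection were repeated, and confirmation required reproducible complete protection.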

pEC50, pIC50: −log10 of the molar value. Calls of active or inactive are those of the source.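 How the source made its calls: active means compounds giving half or more protection of infected cells from virus-caused growth loss, again on retest; inactive means the rest.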 Where a SMILES comes first, the peptide text is derived from it. A value given as a limit tells only on which side of the number the result lay.

`CC(C)(C)[Si](C)(C)OCC1OC(n2ccc(=O)[nH]c2=O)C(O[Si](C)(C)C(C)(C)C)[C@@]12N[C@H](C(N)=O)CS2` (some centres not stated): the pEC50 is less than 3.70 and the pIC50 was 5.05. On to `COc1ccc(-c2cc(-c3ccccc3)c(C#N)c(=O)n2C2OC(CO)C(O)C(O)C2O)cc1` (configuration not stated), for which the pEC50 was less than 4.67 and the pIC50 was less than 4.67.

For `CC(Cl)CN1COc2c3c(c4ccccc4c2C1)CN(CC(C)Cl)CO3` (configuration not stated), the pEC50 was less than 4.04 and the negative-log IC50 (pIC50) is 4.56. With `O=C(Cn1c(-c2ccccc2)cc2ccccc21)N1CCCC1`, the pEC50 was less than 3.70 and the pIC50 is 3.90. The corresponding values for `CCC(C)C(NC(=O)C(N)CCCCN)C(=O)NC(CCC(N)=O)C(=O)NC(CO)C(=O)NC(C(=O)O)C(C)O` (configuration not stated) (H-KIQST-OH; configuration not given here) are less than 3.94 and less than 3.94. Consider `CCOC(=O)/C(C#N)=C/c1ccc(C)cc1`, for which the pEC50 was less than 3.92 and the negative logarithm of the IC50 (pIC50) is less than 3.92.

In the case of `CC1CSS(=O)O1` (configuration not stated), the pEC50 is less than 3.70 and the pIC50 is less than 3.70.

Regarding `O=S(=O)(N/N=C1\CC2CCC1C2)c1ccccc1` (configuration not stated), the pEC50 was less than 3.70 and the pIC50 is less than 3.70. As to `C=C1C[C@]2(C)c3ccccc3NC(=O)[C@H]12`, the pEC50 is 3.79 and the pIC50 is less than 3.70. For `Nc1ccc(N=Nc2ccc(-c3ccc(N=Nc4c(S(=O)(=O)O)cc5cc(S(=O)(=O)O)c(N=Nc6cccc([N+](=O)[O-])c6)c(N)c5c4O)cc3)cc2)c2cc(S(=O)(=O)O)ccc12`, the result was active. With `CC(=O)NC1C(O)OC(CO)C(OC2OC(CO)C(O)C(O)C2NC(=O)NCCCCCCNC(=O)n2cc(F)c(=O)[nH]c2=O)C1O` (configuration not stated), the outcome was inactive. As for `CNC(=S)c1nnsc1N`, the pEC50 was less than 3.70 and the pIC50 was 6.52.

Take `O=P(O)(O)C1(P(=O)(O)O)CC1`: the pEC50 is less than 3.60 and the pIC50 is less than 3.60. For `COC1/C=C\OC2(C)Oc3c(C)c(O)c4c(c3C2=O)C(=O)C=C(NC(=O)/C(C)=C\C=C/C(C)C(O)C(C)C(O)C(C)C(OC(C)=O)C1C)C4=O` (configuration not stated), the pEC50 was less than 3.70 and the pIC50 is 5.57. In the case of `O=C1COC(c2ccccc2O)=NN1CCCl`, the pEC50 was less than 3.85 and the pIC50 is less than 3.85. Regarding `Cc1nc2ccccc2cc1C[N+]12CN3CN(CN(C3)C1)C2`, the outcome was inactive. As to `O=C(/C=C/c1ccccc1O)c1ccc([N+](=O)[O-])cc1`, the pEC50 was less than 4.02 and the pIC50 is 4.27. The matching figures for `O=[N+]([O-])/C(Cl)=C(\NCCN/C(C(Cl)=C(Cl)Cl)=C(/Cl)[N+](=O)[O-])C(Cl)=C(Cl)Cl`: less than 3.70 and 4.21. Take `[Cu+2].[O-]/N=C/c1ccc[oH+]1.[O-]/N=C/c1ccc[oH+]1`: the pEC50 is less than 3.70 and the pIC50 was 4.93. `Brc1ccccc1C1SCc2nc3ccccc3n21` (configuration not stated): the result was inactive. `COC(=O)/C=C/C(=O)CC(O)COC(=O)c1ccccc1` (configuration not stated): the pEC50 is less than 4.07 and the pIC50 is 5.68. With `CCCO/N=[N+](\[O-])N(CC)CC`, the pEC50 is less than 2.05 and the pIC50 was less than 2.05. On to `Cc1ccc(OCC2OC(n3cnc4nc(N)nc(Cl)c43)CC2Oc2ccc(C)cc2)cc1` (configuration not stated), for which the pEC50 was less than 3.70 and the pIC50 is less than 3.70. As to `O=c1c2ccccc2nc2n1-c1ccccc1SC2`, the pEC50 was less than 4.01 and the pIC50 was less than 4.01. For `OCCOCC#CCOCCO`, the pEC50 was less than 3.70 and the pIC50 was less than 3.70. As to `CN(C)[C@@H]1C(=O)C(C(N)=O)=C(O)[C@@]2(O)C(=O)C3=C(O)c4c(O)ccc(Cl)c4[C@@](C)(O)[C@H]3C[C@@H]12`, the pEC50 was less than 4.85 and the pIC50 was less than 4.85.

Consider `CCOP(C)(=O)/C(Cc1ccc(OC)c(OC)c1)=N\O` (configuration not stated), for which the pEC50 was less than 3.70 and the pIC50 was less than 3.70. Take `O=C(CSc1c2ccccc2nc2ccccc12)Nc1ccccc1-c1ccccc1NC(=O)CSc1c2ccccc2nc2ccccc12`: the pEC50 is less than 5.72 and the negative logarithm of the IC50 (pIC50) was less than 5.72. Consider `S=C1c2ccccc2NC(=NC2CCCC2)C2CSCN12` (configuration not stated), for which the pEC50 is less than 3.70 and the pIC50 was 3.83.

As to `CC1=C(C)C1[N+](=O)[O-]`, the pEC50 is less than 3.70 and the pIC50 is less than 3.70. As for `CC(C)(O)C(O)COc1c2c(cc3oc(=O)ccc13)OCO2` (configuration not stated), the pEC50 was less than 3.09 and the pIC50 is 3.47. Take `C1CN2CCO[SiH](O1)OCC2`: the outcome was inactive.

Regarding `CC(=O)OCC(=O)[C@@]1(O)CC[C@H]2[C@@H]3C[C@H](C)C4=CC(=O)C=C[C@]4(C)[C@@]3(Br)[C@@H](O)C[C@@]21C`, the result was inactive. On to `O=[N+]([O-])c1ccc(NC(=S)N/N=C(\c2ccccc2)c2ccccn2)cc1`, for which the pEC50 is less than 5.70 and the pIC50 was less than 5.70. In the case of `C=C1C(=O)OC2/C=C(\C)CC(O)/C=C(\C)CC(OC(=O)/C(=C\C)COC(C)=O)C12` (configuration not stated), the pEC50 is less than 3.94 and the pIC50 was 6.39.

With `Nc1ccc(N=Nc2ccc(-c3ccc(N=Nc4c(S(=O)(=O)O)cc5cc(S(=O)(=O)O)c(N=Nc6ccccc6)c(O)c5c4N)cc3)cc2)c2ccc(S(=O)(=O)O)cc12`, the outcome was inactive. Regarding `Cc1cc(Cl)cc(S)c1S(=O)(=O)Nc1nnc2ccc3ccccc3n12`, the pEC50 is less than 3.70 and the pIC50 was 4.03. In the case of `COc1ccc(NC(=O)/C(CC2=Nc3ccc([N+](=O)[O-])cc3NC2O)=N\NC(=O)C[N+](C)(C)C)c(OC)c1` (configuration not stated), the pEC50 was less than 4.34 and the pIC50 was less than 4.34.

As for `Cc1[nH]n(C2=NCCN2)c(=O)c1C`, the pEC50 was less than 3.70 and the pIC50 was less than 3.70. For the compound `[Cu].c1ccc2c3[n-]c(c2c1)/N=c1\[n-]/c(c2ccccc12)=N\c1[n-]c(c2ccccc12)/N=c1\[n-]/c(c2ccccc12)=N\3`, the pEC50 is less than 3.70 and the pIC50 was 4.29. As for `O=C(O)c1ccc2c3c(ncnc13)-c1ccccc1C2=O`, the pEC50 was less than 3.70 and the negative logarithm of the IC50 (pIC50) was 4.83. Turning to `Cc1cc2nn(C3CCCCO3)nc2cc1C` (configuration not stated), the pEC50 was less than 3.70 and the pIC50 was less than 3.70. On to `O=C1CC2CCCC(C1)S2=O` (configuration not stated), for which the pEC50 is less than 2.84 and the pIC50 was less than 2.84. On to `CCOC(=O)c1c(N)sc2c1CCCC2`, for which the pEC50 is less than 3.70 and the pIC50 was 4.25. For `Clc1ccc(CSc2ccc3nncc(SCc4ccc(Cl)c(Cl)c4)c3c2)cc1Cl`, the pEC50 was less than 4.38 and the pIC50 is 4.43. In the case of `CCCCCCCCCCCCCCCCC(=O)NCC(=O)NCC(=O)NC(Cc1ccccc1)C(=O)Oc1ccc([N+](=O)[O-])cc1` (configuration not stated), the pEC50 is less than 3.70 and the negative logarithm of the IC50 (pIC50) is 4.74. Take `CC(C)(C)c1noc2c1C(=O)c1ccccc1-2`: the pEC50 was less than 3.70 and the negative logarithm of the IC50 (pIC50) was 4.08. Take `OCC(O)C(OC1OC(CO)C(O)C(O)C1O)C(O)C(/C=N\Nc1ccccc1)=N/Nc1ccccc1` (configuration not stated): the pEC50 was less than 3.70 and the pIC50 is 5.31. Regarding `CNc1nnc(CNc2ccc(-c3nnc(NC)n3N)cc2)n1N`, the pEC50 was less than 3.70 and the pIC50 was less than 3.70. With `CSc1ccc(Cc2cc(C(C)(C)C)cc(C(C)(C)C)c2O)cc1`, the outcome was inactive. Consider `Nc1ncc(Cl)c(NCC2(CO)CC(CCc3ccccc3)C2)n1` (configuration not stated), for which the pEC50 is less than 3.70 and the pIC50 was 5.49. As to `CCOC(=O)c1ccc(N=C2SC(=S)N(c3ccc(F)cc3)C2=Nc2ccc(C(=O)OCC)cc2)cc1`, the pEC50 is less than 4.70 and the pIC50 is 5.17. Regarding `O=S1OC(c2ccccc2)(c2ccccc2)C(c2ccccc2)(c2ccccc2)O1`, the pEC50 is less than 4.79 and the pIC50 is less than 4.79. Regarding `CCOc1ccccc1N1C(=O)C(=O)C(c2nc3ccccc3o2)/C(=N\N)C1=O` (configuration not stated), the result was inactive. As to `Fc1ccc(NC2=NCCN=C(Nc3ccc(F)cc3)SS2)cc1`, the pEC50 is less than 3.70 and the pIC50 is 4.61. For the compound `NC(=O)N/N=C(/Cc1nc2ccc(C(=O)c3ccccc3)cc2[nH]c1=O)C(=O)Nc1ccc(C(F)(F)F)cc1[N+](=O)[O-]`, the result was inactive. `CCCCN(CCCC)NC(=S)Nc1ccccc1`: the pEC50 was less than 4.45 and the pIC50 was less than 4.45. Turning to `CC(C)(C)OC(=O)N1CCCC1C(=O)N1CCCC1C(=O)Oc1ccccc1` (configuration not stated), the pEC50 was less than 4.17 and the negative logarithm of the IC50 (pIC50) is less than 4.17. Take `Cn1c(=O)n(CC2CS2)c2ccccc21` (configuration not stated): the pEC50 is less than 2.95 and the pIC50 is 4.61.

For `OCC(O)C1OCOC2COCOC21` (configuration not stated), the pEC50 is less than 3.70 and the pIC50 is less than 3.70. As to `CCCCCCCCCCCCCCCCCCOCC(O)CO` (configuration not stated), the pEC50 was less than 5.52 and the pIC50 is less than 5.52. The compound `COc1ccc(-c2nc(SC3OC(COC(C)=O)C(OC(C)=O)C(OC(C)=O)C3OC(C)=O)n(C3OC(COC(C)=O)C(OC(C)=O)C(OC(C)=O)C3OC(C)=O)c(=O)c2C#N)cc1` (configuration not stated) gave a pIC50 of less than 4.00. Take `Cc1cc(C=O)c(C)c2c1[nH]c1ccccc12`: the pEC50 was less than 3.70 and the pIC50 is 5.12.

As to `COc1ccc(OC)c(NC(=O)C(=O)C(C(C)=O)c2nc3ccc(Cl)cc3[nH]c2=O)c1` (configuration not stated), the pEC50 was less than 4.09 and the pIC50 is less than 4.09. Regarding `O=C1N(Cc2ccccc2)[C@H]2CS(=O)(=O)C[C@@H]2N1Cc1ccccc1`, the pEC50 is less than 3.70 and the pIC50 is less than 3.70. For `O=c1oc2ccccc2c(O)c1C(c1ccc(O)cc1)c1c(O)c2ccccc2oc1=O`, the outcome was inactive.

Consider `COc1ccc2c(c1)CCCN2S(=O)(=O)c1ccccc1[N+](=O)[O-]`, for which the pEC50 was less than 3.70 and the pIC50 was 4.67.

Consider `Cc1ncc([N+](=O)[O-])n1CCNC(=O)CCCn1cnc([N+](=O)[O-])n1`, for which the pEC50 is less than 3.70 and the pIC50 was less than 3.70. `O=C1c2c(O)cccc2Cc2cccc(O)c21`: the result was inactive. With `C=C1C(=O)O[C@@H]2CC(C)C3C(O)CC(O)[C@@]3(C)C[C@H]12` (some centres not stated), the pEC50 was less than 3.03 and the pIC50 was 4.85.

As a reminder, the pEC50 is the EC50 on a negative log10 scale, so that one unit is a factor of ten. For orientation: pIC50 means −log10 of the IC50, conventionally taken in molar units. A higher pIC50 goes with a low IC50.
